Experimental data published in article PMC7408547, “Bivalent Inhibitor with Selectivity for Trimeric MMP-9 Amplifies Neutrophil Chemotaxis and Enables Functional Studies on MMP-9 Proteoforms” (Cells, 2020).
pIC50: −log10 of the molar value.

How the values were obtained:
Format in all cases: biochemical
[1] = molecular target: T1, neutrophil elastase (Homo sapiens, UniProt P08246); assay: Neutrophil elastase activity assay (fluorogenic elastase peptide and gelatin); conditions: fluorogenic elastase substrate and gelatin; tested up to an inhibitor concentration of 50 µM
T1 construct: Active human neutrophil elastase (NE) was purchased from Abcam; purchased Abcam
T1 sequence (P08246 30-267): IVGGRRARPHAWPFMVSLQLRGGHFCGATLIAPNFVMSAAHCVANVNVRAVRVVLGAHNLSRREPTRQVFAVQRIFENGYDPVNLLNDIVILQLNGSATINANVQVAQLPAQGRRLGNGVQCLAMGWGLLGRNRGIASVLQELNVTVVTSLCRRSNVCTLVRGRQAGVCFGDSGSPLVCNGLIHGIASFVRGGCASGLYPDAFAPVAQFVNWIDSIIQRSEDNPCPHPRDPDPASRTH
Description: (§1) Compounds 5 and 7 were synthesized as previously reported. Full-length human proMMP-9 was produced by recombinant expression in Sf9 insect cells and purified by gelatin-Sepharose chromatography as previously described. Stable full-length proMMP-9 monomers and trimers were separated by glycerol gradient ultracentrifugation as previously described. ProMMP-9 mixture and the separated monomers and trimers were activated by incubation with the catalytic domain of MMP-3 (cat. No. 444217, Merck Millipore, Darmstadt, Germany) as previously described. […] ADAM17/TACE (Sf 21 (baculovirus)-derived, R & D systems, Minneapolis, MO, USA) was diluted and evaluated in 25 mM Tris, 2.5 μM ZnCl2, 0.005% Brij-35, pH 9.0. All stocks of the compounds were evaluated for the presence of endotoxin using the EndoZyme II assay (Hyglos bioMérieux, Bernried am Starnberger See, Germany). […]
(§2) To determine the inhibition of gelatinolytic activity, we used a previously optimized gelatin degradation assay. […] Next, dye-quenched gelatin (DQ™-gelatin, Invitrogen, Carlsbad, CA, USA) was added at a final concentration of 2.5 µg/mL and the increase in fluorescence over time was measured with the CLARIOstar microplate reader (BMG Labtech, Ortenberg, Germany). […]

[2] = molecular target: T2, MMP-8/neutrophil collagenase (Homo sapiens, UniProt P22894); assay: MMP-8 OmniMMP peptide assay; conditions: for pIC50: OmniMMP substrate peptide
T2 construct: purchased R & D systems; host or cells: NS0 cells
Description: Compounds 5 and 7 were synthesized as previously reported. Full-length human proMMP-9 was produced by recombinant expression in Sf9 insect cells and purified by gelatin-Sepharose chromatography as previously described. Stable full-length proMMP-9 monomers and trimers were separated by glycerol gradient ultracentrifugation as previously described. ProMMP-9 mixture and the separated monomers and trimers were activated by incubation with the catalytic domain of MMP-3 (cat. No. 444217, Merck Millipore, Darmstadt, Germany) as previously described. Activation of proMMP-9 was confirmed by a band shift of ±10 kDa, corresponding to the removal of the auto-inhibitory propeptide domain and by detection of gelatinolytic activity with a previously described gelatin degradation assay. MMP-9 monomers and trimers purified from human neutrophils were purchased (Cat. No. 444,231 and 444232, Sigma-Aldrich, St. Louis, MO, USA). Examples of sample purities and activations can be found in Supplementary Figure S1. […] ADAM17/TACE (Sf 21 (baculovirus)-derived, R & D systems, Minneapolis, MO, USA) was diluted and evaluated in 25 mM Tris, 2.5 μM ZnCl2, 0.005% Brij-35, pH 9.0. All stocks of the compounds were evaluated for the presence of endotoxin using the EndoZyme II assay (Hyglos bioMérieux, Bernried am Starnberger See, Germany). […]
(§3) To determine the inhibition of gelatinolytic activity, we used a previously optimized gelatin degradation assay. […] Next, dye-quenched gelatin (DQ™-gelatin, Invitrogen, Carlsbad, CA, USA) was added at a final concentration of 2.5 µg/mL and the increase in fluorescence over time was measured with the CLARIOstar microplate reader (BMG Labtech, Ortenberg, Germany). […] Proteolytic activity was determined by linear regression of the fluorescence curve and the percentage inhibition was calculated through comparison with the positive control (no inhibitors). […]

[3] = molecular target: T3, recombinant human MMP-9 monomers (Homo sapiens, UniProt P14780); assay: Fluorogenic peptide (OmniMMP) degradation assay, recombinant MMP-9 monomers; conditions: recombinant human MMP-9 (Sf9) mono
T3 construct: made in house; host or cells: Sf9 insect cells
Description: (§4) Compounds 5 and 7 were synthesized as previously reported. Full-length human proMMP-9 was produced by recombinant expression in Sf9 insect cells and purified by gelatin-Sepharose chromatography as previously described. Stable full-length proMMP-9 monomers and trimers were separated by glycerol gradient ultracentrifugation as previously described. ProMMP-9 mixture and the separated monomers and trimers were activated by incubation with the catalytic domain of MMP-3 (cat. No. 444217, Merck Millipore, Darmstadt, Germany) as previously described. Activation of proMMP-9 was confirmed by a band shift of ±10 kDa, corresponding to the removal of the auto-inhibitory propeptide domain and by detection of gelatinolytic activity with a previously described gelatin degradation assay. MMP-9 monomers and trimers purified from human neutrophils were purchased (Cat. No. 444,231 and 444232, Sigma-Aldrich, St. Louis, MO, USA). Examples of sample purities and activations can be found in Supplementary Figure S1. Recombinant human proMMP-2 (CHO cell-derived), proMMP-3 (NS0 cell-derived), proMMP-7 (NS0 cell-derived) and proMMP-8 (NS0 cell-derived) were purchased from R & D systems (Minneapolis, MN, USA), dissolved in assay buffer (150 mM NaCl, 5 mM CaCl2, 0.01% Tween-20, 50 mM Tris, pH 7.4) to a concentration of 100 µg/mL and activated by incubation with 1 mM p-aminophenylmercuric acetate for, respectively, 1h, 6h, 2h and 1h. Activation of MMPs was confirmed by a band shift of approximately 10 kDa, corresponding to the removal of the propeptide domain. MMP-14/MT1-MMP (NS0 cell-derived) was also purchased from R & D systems (Minneapolis, MN, USA) and activated by incubation with recombinant human furin (cat. No. 1503-SE-010, R & D systems, Minneapolis, MO, USA) in activation buffer (50 mM Tris, 1 mM CaCl2, 0.5% Brij-35, pH 9) for 1.5 h and activity was tested in assay buffer (50 mM Tris, 3 mM CaCl2, 1 µM ZnCl2, pH 8.5). Active human neutrophil elastase (NE) was purchased from Abcam (Cambridge, UK) and for activity assays of NE the assay buffer was replaced by 200 mM Tris, pH 8.8. ADAM17/TACE (Sf 21 (baculovirus)-derived, R & D systems, Minneapolis, MO, USA) was diluted and evaluated in 25 mM Tris, 2.5 μM ZnCl2, 0.005% Brij-35, pH 9.0. All stocks of the compounds were evaluated for the presence of endotoxin using the EndoZyme II assay (Hyglos bioMérieux, Bernried am Starnberger See, Germany). Endotoxin levels in all concentrated stocks (2.5 mg/mL) were below the accepted limit of 0.5 EU/mL.
To determine the inhibition of gelatinolytic activity, we used a previously optimized gelatin degradation assay. […] […] […] BML-P126-0001, Enzo Life Sciences, Farmingdale, NY, USA) was used at a final concentration of 2.5 µg/mL. For ADAM17 the fluorogenic peptide Mca-PLAQAV-Dpa-RSSSR-NH2 (ES003, R & D systems, Minneapolis, MO, USA) and for neutrophil elastase the fluorogenic substrate MeOSuc-AAPV-AMC (cat. no. 324740, Merck Millipore, Darmstadt, Germany) were used. Proteolytic activity was determined by linear regression of the fluorescence curve and the percentage inhibition was calculated through comparison with the positive control (no inhibitors). When testing supernatants from human neutrophils, the assay was performed in the presence of 20 µM neutrophil elastase inhibitor (Elastase Inhibitor IV, Calbiochem, Darmstadt, Germany).

[4] = molecular target: T4, TACE/ADAM17 (Homo sapiens, UniProt P78536); assay: TACE/ADAM17 fluorogenic peptide assay; conditions: Mca-PLAQAV-Dpa-RSSSR-NH2 fluorogenic peptide, tested up to an inhibitor concentration of 50 µM
T4 construct: purchased R & D systems; host or cells: Sf 21 (baculovirus)
Description: as §4, with “Active human neutrophil elastase (NE) was purchased from Abcam (Cambridge, UK) and for activity assays of NE the assay buffer was replaced by 200 mM Tris, pH 8.8.” left out, “Endotoxin levels in all concentrated stocks (2.5 mg/mL) were below the accepted limit of 0.5 EU/mL.” left out
as §3

[5] = molecular target: T5, MMP-3 (Homo sapiens, UniProt P08254); assay: MMP-3 OmniMMP peptide assay; conditions: OmniMMP substrate peptide
T5 construct: purchased R & D systems; host or cells: NS0 cells
Description: as §1, §2

[6] = molecular target: T6, human neutrophil-derived MMP-9 monomers (Homo sapiens, UniProt P14780); assay: Gelatin degradation assay, neutrophil-derived MMP-9 monomers; conditions: MMP-9 isolated from human neutrophils, mono
T6 construct: purchased Sigma-Aldrich 444,231; host or cells: human neutrophils (natural protein)
Description: as §4
To determine the inhibition of gelatinolytic activity, we used a previously optimized gelatin degradation assay. Activated MMP-9, activated MMP-2, neutrophil elastase or supernatants of stimulated neutrophils, were incubated with different concentrations of inhibitors and incubated for 30 min at 37 °C. Next, dye-quenched gelatin (DQ™-gelatin, Invitrogen, Carlsbad, CA, USA) was added at a final concentration of 2.5 µg/mL and the increase in fluorescence over time was measured with the CLARIOstar microplate reader (BMG Labtech, Ortenberg, Germany). For other MMPs, the OmniMMP substrate peptide (Mca-PLGL-Dpa-AR-NH2, cat. no. BML-P126-0001, Enzo Life Sciences, Farmingdale, NY, USA) was used at a final concentration of 2.5 µg/mL. For ADAM17 the fluorogenic peptide Mca-PLAQAV-Dpa-RSSSR-NH2 (ES003, R & D systems, Minneapolis, MO, USA) and for neutrophil elastase the fluorogenic substrate MeOSuc-AAPV-AMC (cat. no. 324740, Merck Millipore, Darmstadt, Germany) were used. Proteolytic activity was determined by linear regression of the fluorescence curve and the percentage inhibition was calculated through comparison with the positive control (no inhibitors). When testing supernatants from human neutrophils, the assay was performed in the presence of 20 µM neutrophil elastase inhibitor (Elastase Inhibitor IV, Calbiochem, Darmstadt, Germany).

T3 sequence (P14780 107-707 limits assumed): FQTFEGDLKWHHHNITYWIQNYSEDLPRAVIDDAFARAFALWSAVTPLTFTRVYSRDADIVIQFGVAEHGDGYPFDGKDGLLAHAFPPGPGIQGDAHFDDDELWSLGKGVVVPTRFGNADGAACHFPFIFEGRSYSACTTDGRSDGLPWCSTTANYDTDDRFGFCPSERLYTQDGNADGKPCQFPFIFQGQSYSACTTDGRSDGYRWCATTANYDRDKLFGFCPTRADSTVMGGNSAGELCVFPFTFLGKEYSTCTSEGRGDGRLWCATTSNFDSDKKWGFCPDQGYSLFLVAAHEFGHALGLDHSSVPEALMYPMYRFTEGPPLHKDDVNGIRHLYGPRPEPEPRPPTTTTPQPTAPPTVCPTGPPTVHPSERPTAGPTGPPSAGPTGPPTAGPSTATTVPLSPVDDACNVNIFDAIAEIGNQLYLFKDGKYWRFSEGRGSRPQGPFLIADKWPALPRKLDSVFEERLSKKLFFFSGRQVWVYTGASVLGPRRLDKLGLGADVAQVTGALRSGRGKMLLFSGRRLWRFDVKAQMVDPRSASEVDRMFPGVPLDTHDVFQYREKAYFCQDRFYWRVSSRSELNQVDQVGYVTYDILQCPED
T6 sequence (P14780 107-707 limits assumed): as above
T2 sequence (P22894 101-467): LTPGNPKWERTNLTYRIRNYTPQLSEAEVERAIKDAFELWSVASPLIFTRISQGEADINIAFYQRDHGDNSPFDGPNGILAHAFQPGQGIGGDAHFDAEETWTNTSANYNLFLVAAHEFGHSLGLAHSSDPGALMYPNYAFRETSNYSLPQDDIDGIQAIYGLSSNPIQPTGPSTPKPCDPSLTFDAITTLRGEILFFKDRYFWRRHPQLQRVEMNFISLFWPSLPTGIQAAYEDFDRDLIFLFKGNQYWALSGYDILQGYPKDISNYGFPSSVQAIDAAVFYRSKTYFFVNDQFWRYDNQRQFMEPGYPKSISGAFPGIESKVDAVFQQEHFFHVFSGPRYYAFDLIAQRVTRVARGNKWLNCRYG
T4 sequence (P78536 215-824): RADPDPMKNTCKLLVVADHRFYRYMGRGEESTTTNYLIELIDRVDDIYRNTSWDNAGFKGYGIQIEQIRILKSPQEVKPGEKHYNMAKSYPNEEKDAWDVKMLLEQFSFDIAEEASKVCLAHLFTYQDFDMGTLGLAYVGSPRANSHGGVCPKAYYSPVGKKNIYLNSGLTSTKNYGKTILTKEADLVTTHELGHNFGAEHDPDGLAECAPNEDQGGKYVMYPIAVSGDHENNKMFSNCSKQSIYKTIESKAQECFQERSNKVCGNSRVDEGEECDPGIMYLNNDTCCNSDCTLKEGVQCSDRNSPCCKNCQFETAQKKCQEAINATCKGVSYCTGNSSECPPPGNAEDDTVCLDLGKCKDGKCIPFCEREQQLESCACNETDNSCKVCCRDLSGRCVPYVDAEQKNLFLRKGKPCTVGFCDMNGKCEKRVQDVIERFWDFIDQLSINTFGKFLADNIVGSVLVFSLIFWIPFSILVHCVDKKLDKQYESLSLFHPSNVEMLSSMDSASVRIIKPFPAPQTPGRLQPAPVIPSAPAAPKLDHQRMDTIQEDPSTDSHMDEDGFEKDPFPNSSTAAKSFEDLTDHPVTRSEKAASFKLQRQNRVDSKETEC
T5 sequence (P08254 100-477): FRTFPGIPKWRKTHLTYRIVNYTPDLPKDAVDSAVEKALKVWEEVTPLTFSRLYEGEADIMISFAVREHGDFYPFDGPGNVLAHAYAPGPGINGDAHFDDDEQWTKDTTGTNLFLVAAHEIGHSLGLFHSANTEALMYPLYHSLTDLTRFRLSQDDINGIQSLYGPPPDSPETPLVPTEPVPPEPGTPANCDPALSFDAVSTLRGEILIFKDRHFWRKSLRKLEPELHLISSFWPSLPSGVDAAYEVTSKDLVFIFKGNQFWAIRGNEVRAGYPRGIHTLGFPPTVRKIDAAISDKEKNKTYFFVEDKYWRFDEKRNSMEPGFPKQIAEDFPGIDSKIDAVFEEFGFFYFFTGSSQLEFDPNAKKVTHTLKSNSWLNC

Structure (SMILES) | IC50 [1] | pIC50 [2] | IC25 [3] | pIC50 [3] | IC75 [3] | IC50 [4] | IC50 ([4]; listed as compound 5) | pIC50 [5] | IC25 [6] | pIC50 [6] | IC75 [6] | fold less inhibition of MMP-8 than of trimeric MMP-9 ([2]; peptide substrate) | IC50 ([4]; listed as compound 7)
CC(C)[C@H](C(=O)O)N(CCNC(=O)c1ccccc1)S(=O)(=O)c1ccc(-c2ccccc2)cc1 [Compound 5] | no inhibition ^† | 6.48 | 232 nM | 6.14 | 2228 nM | no inhibition ^† | not inhibited | 6.02 | 300 nM | 5.94 | 4431 nM |  | 
CC(C)[C@H](C(=O)O)N(CCNC(=O)c1cccc(C(=O)NCCN([C@@H](C(=O)O)C(C)C)S(=O)(=O)c2ccc(-c3ccccc3)cc2)c1)S(=O)(=O)c1ccc(-c2ccccc2)cc1 [Compound 7] | no inhibition ^† | 7.84 | 10.5 nM | 7.25 | 296 nM | no inhibition ^† |  | 8.11 | 10 nM | 7.37 | 181 nM | more than 100 fold | not inhibited
